Experimental data published in BindingDB's records for doi:10.1016/j.bmcl.2010.10.033 (Glaxosmithkline, 2010).
pIC50: −log10 of the molar value.

Experiments:
[1] = Antagonist activity at CCR5 in HOS cells assessed as inhibition of HIV-1 Ba-L infection
[2] = Antagonist activity at CCR5 in human peripheral blood lymphocytes cells assessed as inhibition of HIV-1 Ba-L infection

`CCCCN(C(=O)NCc1ccc(C#N)cc1)C1CCN(CCC2(c3cccc(F)c3)CCN(C(=O)c3cc(S(=O)(=O)NC(C)(C)C)c(F)cc3Cl)CC2)CC1` [N-tert-butyl-5-(4-(2-(4-(1-butyl-3-(4-cyanobenzyl)ureido)piperidin-1-yl)ethyl)-4-(3-fluorophenyl)piperidine-1-carbonyl)-4-chloro-2-fluorobenzenesulfonamide] gave a pIC50 [1] of 8.59 and a pIC50 [2] of 7.96.

In the case of `C=CCN(C(=O)NCc1ccc(C(=O)OC)cc1)C1CCN(CCC2(c3cccc(F)c3)CCN(C(=O)c3cc(S(=O)(=O)NC(C)(C)C)c(F)cc3Cl)CC2)CC1` [methyl 4-((3-allyl-3-(1-(2-(1-(5-(N-tert-butylsulfamoyl)-2-chloro-4-fluorobenzoyl)-4-(3-fluorophenyl)piperidin-4-yl)ethyl)piperidin-4-yl)ureido)methyl)benzoate], the pIC50 [1] was 7.59 and the pIC50 [2] was 6.84.
